Tests used:
Carbonic anhydrase 1 = Carbonic anhydrase 1 (Homo sapiens, UniProt P00915); test: Binding affinity to recombinant human CA1 by DSF-based fluorescence thermal shift assay
Carbonic anhydrase 2 = Carbonic anhydrase 2 (Homo sapiens, UniProt P00918); test: Binding affinity to recombinant human CA2 by DSF-based fluorescence thermal shift assay
Carbonic anhydrase 3 = Carbonic anhydrase 3 (Homo sapiens, UniProt P07451); test: Binding affinity to recombinant N-terminal His6x-tagged human CA3 (4 to 260 residues) expressed in Escherichia coli BL21(DE3) by DSF-based fluorescence thermal shift assay
Carbonic anhydrase 4 = Carbonic anhydrase 4 (Homo sapiens, UniProt P22748); test: Binding affinity to recombinant human CA4 by DSF-based fluorescence thermal shift assay
[1] = molecular target: Carbonic anhydrase 5B, mitochondrial (Homo sapiens, UniProt Q9Y2D0); test: Binding affinity to recombinant full length N-terminal His6x-tagged human CA5B expressed in Escherichia coli Rosetta 2 (DE3) by DSF-based fluorescence thermal shift assay
Carbonic anhydrase 6 = Carbonic anhydrase 6 (Homo sapiens, UniProt P23280); test: Binding affinity to recombinant human CA6 by DSF-based fluorescence thermal shift assay
Carbonic anhydrase 9 = Carbonic anhydrase 9 (Homo sapiens, UniProt Q16790); test: Binding affinity to recombinant human CA9 by DSF-based fluorescence thermal shift assay
Carbonic anhydrase 12 = Carbonic anhydrase 12 (Homo sapiens, UniProt O43570); test: Binding affinity to recombinant human CA12 by DSF-based fluorescence thermal shift assay
Carbonic anhydrase 13 = Carbonic anhydrase 13 (Homo sapiens, UniProt Q8N1Q1); test: Binding affinity to recombinant human CA13 by DSF-based fluorescence thermal shift assay
Carbonic anhydrase 7 = Carbonic anhydrase 7 (Homo sapiens, UniProt P43166); test: Binding affinity to recombinant human CA7 by DSF-based fluorescence thermal shift assay
Sequence of Carbonic anhydrase 7 (P43166 whole entry): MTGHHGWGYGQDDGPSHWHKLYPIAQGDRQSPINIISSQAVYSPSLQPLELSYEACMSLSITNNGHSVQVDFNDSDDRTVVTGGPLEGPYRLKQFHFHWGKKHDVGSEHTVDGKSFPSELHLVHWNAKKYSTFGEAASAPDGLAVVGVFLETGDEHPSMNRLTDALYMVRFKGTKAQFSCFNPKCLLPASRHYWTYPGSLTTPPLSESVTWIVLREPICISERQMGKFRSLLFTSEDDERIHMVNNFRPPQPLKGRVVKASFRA

Sequence of Carbonic anhydrase 5B, mitochondrial (Q9Y2D0 whole entry): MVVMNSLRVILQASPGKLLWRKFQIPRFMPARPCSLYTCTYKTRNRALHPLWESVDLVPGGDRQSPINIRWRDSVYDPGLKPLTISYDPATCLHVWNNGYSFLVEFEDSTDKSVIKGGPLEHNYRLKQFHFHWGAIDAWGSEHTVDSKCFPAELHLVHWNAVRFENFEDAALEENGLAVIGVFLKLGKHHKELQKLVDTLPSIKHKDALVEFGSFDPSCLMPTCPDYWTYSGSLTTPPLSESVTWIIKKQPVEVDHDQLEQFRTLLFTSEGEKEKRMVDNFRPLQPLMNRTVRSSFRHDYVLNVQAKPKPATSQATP
Sequence of Carbonic anhydrase 6 (P23280 whole entry): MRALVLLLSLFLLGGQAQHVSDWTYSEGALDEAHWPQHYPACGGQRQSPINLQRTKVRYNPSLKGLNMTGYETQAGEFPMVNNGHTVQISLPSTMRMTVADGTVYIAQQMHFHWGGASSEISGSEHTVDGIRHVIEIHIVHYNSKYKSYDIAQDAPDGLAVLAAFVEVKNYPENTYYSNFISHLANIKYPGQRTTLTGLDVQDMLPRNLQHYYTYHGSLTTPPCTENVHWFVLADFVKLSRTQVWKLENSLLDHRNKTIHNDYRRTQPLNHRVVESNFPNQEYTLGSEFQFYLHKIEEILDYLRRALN
Sequence of Carbonic anhydrase 4 (P22748 whole entry): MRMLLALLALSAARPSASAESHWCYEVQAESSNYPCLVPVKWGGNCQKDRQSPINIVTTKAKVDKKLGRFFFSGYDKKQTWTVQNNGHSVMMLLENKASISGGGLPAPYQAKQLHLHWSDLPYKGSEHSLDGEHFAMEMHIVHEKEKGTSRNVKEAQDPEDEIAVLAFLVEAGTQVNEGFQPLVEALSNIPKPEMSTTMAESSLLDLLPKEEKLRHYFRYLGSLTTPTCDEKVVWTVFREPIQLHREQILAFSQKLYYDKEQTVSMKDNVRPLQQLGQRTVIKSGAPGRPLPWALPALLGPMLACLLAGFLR
Sequence of Carbonic anhydrase 1 (P00915 whole entry): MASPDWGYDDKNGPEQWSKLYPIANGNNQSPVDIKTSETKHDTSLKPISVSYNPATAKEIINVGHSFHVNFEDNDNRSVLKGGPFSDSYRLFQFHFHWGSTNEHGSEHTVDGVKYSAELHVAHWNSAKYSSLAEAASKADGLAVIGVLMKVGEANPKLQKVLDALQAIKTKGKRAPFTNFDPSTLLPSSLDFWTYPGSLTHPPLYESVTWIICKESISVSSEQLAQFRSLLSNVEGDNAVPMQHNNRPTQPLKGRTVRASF
Sequence of Carbonic anhydrase 12 (O43570 whole entry): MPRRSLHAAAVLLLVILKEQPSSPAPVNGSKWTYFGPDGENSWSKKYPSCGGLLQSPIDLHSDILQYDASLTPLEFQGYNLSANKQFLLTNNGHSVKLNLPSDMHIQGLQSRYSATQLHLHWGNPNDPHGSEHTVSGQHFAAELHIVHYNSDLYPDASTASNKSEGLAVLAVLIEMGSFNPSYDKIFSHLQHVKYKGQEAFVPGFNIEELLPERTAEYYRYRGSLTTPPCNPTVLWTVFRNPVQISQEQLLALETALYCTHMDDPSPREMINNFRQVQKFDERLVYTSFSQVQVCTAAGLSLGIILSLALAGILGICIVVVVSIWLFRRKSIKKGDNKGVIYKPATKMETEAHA
Sequence of Carbonic anhydrase 3 (P07451 whole entry, the tested form may be a part): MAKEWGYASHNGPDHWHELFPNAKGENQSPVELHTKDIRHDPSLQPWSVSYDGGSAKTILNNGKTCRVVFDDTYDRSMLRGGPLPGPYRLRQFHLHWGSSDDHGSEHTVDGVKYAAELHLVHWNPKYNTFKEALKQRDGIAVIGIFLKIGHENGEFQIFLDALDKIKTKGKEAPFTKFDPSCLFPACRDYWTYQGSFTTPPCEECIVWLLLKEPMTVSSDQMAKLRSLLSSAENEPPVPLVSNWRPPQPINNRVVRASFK
Sequence of Carbonic anhydrase 13 (Q8N1Q1 whole entry): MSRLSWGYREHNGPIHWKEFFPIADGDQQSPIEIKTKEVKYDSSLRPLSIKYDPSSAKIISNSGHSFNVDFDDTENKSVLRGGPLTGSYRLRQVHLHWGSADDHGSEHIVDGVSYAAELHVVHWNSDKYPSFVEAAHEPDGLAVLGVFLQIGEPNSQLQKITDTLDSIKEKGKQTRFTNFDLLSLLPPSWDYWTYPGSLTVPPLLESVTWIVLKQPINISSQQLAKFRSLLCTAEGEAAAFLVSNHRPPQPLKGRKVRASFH

Row | SMILES | Kd (Carbonic anhydrase 1) | Kd (Carbonic anhydrase 2) | Kd (Carbonic anhydrase 3) | Kd (Carbonic anhydrase 4) | Kd [1] | Kd (Carbonic anhydrase 6) | Kd (Carbonic anhydrase 9) | Kd (Carbonic anhydrase 12) | Kd (Carbonic anhydrase 13) | Kd (Carbonic anhydrase 7)
1 | Cc1cc(C)cc(NC(=O)C2CC(=O)N(c3ccccc3)C2)c1 (stereo not given) | ≥ 200000 nM | ≥ 200000 nM | ≥ 200000 nM | ≥ 200000 nM | ≥ 200000 nM | ≥ 200000 nM | ≥ 200000 nM | ≥ 200000 nM | ≥ 200000 nM | –
2 | Cc1c(Br)c(N2CC(C(=O)NN)CC2=O)c(Br)c(C)c1S(N)(=O)=O (stereo not given) | ≥ 200000 nM | ≥ 200000 nM | ≥ 200000 nM | ≥ 200000 nM | ≥ 200000 nM | ≥ 200000 nM | ≥ 200000 nM | ≥ 200000 nM | ≥ 200000 nM | ≥ 200000 nM
3 | Cc1cc(N2CC(c3n[nH]c(=S)o3)CC2=O)c(Cl)c(C)c1S(N)(=O)=O (stereo not given) | 830 nM | 100 nM | ≥ 200000 nM | – | 250 nM | 3300 nM | 67 nM | – | 100 nM | 130 nM
4 | Cc1cc(C)n(NC(=O)C2CC(=O)N(c3cc(C)c(S(N)(=O)=O)c(C)c3Cl)C2)n1 (stereo not given) | 1100 nM | 20 nM | – | – | 100 nM | 3300 nM | 100 nM | 2000 nM | 10 nM | 25 nM
5 | NS(=O)(=O)c1ccc(NC(=O)C2CC(=O)N(c3cccc(Br)c3)C2)cc1 (stereo not given) | 310 nM | 190 nM | ≥ 200000 nM | 810 nM | 740 nM | 2400 nM | 56 nM | 10000 nM | 1100 nM | 170 nM
6 | Cc1cc(N2CC(C(=O)NNC(=S)Nc3ccccc3)CC2=O)c(Cl)c(C)c1S(N)(=O)=O (stereo not given) | 360 nM | 32 nM | – | – | 200 nM | 2200 nM | 100 nM | 360 nM | 14 nM | 100 nM
7 | Cc1cc(NCC(CC(=O)O)c2n[nH]c(=S)n2-c2ccccc2)cc(C)c1S(N)(=O)=O (stereo not given) | 100000 nM | 100000 nM | – | ≥ 200000 nM | ≥ 200000 nM | ≥ 200000 nM | – | 50000 nM | 33000 nM | ≥ 200000 nM
8 | COC(=O)C1CC(=O)N(c2cc(C)c(S(N)(=O)=O)c(C)c2Cl)C1 (stereo not given) | 670 nM | 29 nM | ≥ 200000 nM | 1000 nM | 25 nM | 4800 nM | 100 nM | – | 14 nM | 13 nM
9 | NS(=O)(=O)c1ccc(NC(=O)C2CC(=O)N(c3ccccc3)C2)cc1 (stereo not given) | 260 nM | 88 nM | ≥ 200000 nM | 850 nM | 550 nM | 3600 nM | 53 nM | 5600 nM | 660 nM | 110 nM
10 | Cc1cc(C)n(C(=O)C2CC(=O)N(c3cc(C)c(S(N)(=O)=O)c(C)c3Cl)C2)n1 (stereo not given) | 250 nM | 25 nM | ≥ 200000 nM | – | 13 nM | 3300 nM | 140 nM | 1000 nM | – | 20 nM
11 | Cc1cc(NCC(CC(=O)O)c2n[nH]c(=S)n2-c2ccccc2)c(Cl)c(C)c1S(N)(=O)=O (stereo not given) | 40000 nM | 17000 nM | – | 10000 nM | 10000 nM | 10000 nM | 1000 nM | 2500 nM | 1400 nM | 7700 nM
12 | Cc1cc(N2CC(c3n[nH]c(=S)n3-c3ccccc3)CC2=O)c(Cl)c(C)c1S(N)(=O)=O (stereo not given) | 440 nM | 33 nM | ≥ 200000 nM | – | 40 nM | 3100 nM | 89 nM | 500 nM | 17 nM | 8.7 nM
13 | COC(=O)C1CC(=O)N(c2c(Br)c(C)c(S(N)(=O)=O)c(C)c2Br)C1 (stereo not given) | ≥ 200000 nM | ≥ 200000 nM | ≥ 200000 nM | ≥ 200000 nM | ≥ 200000 nM | ≥ 200000 nM | ≥ 200000 nM | ≥ 200000 nM | ≥ 200000 nM | ≥ 200000 nM
14 | NS(=O)(=O)c1ccc(NC(=O)C2CC(=O)N(c3ccccc3Br)C2)cc1 (stereo not given) | 210 nM | 87 nM | ≥ 200000 nM | 400 nM | 190 nM | 3700 nM | 38 nM | 3500 nM | 200 nM | 51 nM
15 | NS(=O)(=O)c1ccc(NC(=O)C2CC(=O)N(c3ccc(Br)cc3)C2)cc1 (stereo not given) | 3300 nM | 640 nM | ≥ 200000 nM | 5600 nM | 3800 nM | 17000 nM | 430 nM | 39000 nM | 3100 nM | 1500 nM
16 | Cc1cc(N2CC(c3n[nH]c(=S)o3)CC2=O)cc(C)c1S(N)(=O)=O (stereo not given) | 10000 nM | 7700 nM | ≥ 200000 nM | 6900 nM | 2000 nM | 50000 nM | 3300 nM | ≥ 200000 nM | ≥ 200000 nM | 20000 nM
17 | Cc1c(Br)c(N2CC(C(=O)O)CC2=O)c(Br)c(C)c1S(N)(=O)=O (stereo not given) | ≥ 200000 nM | ≥ 200000 nM | ≥ 200000 nM | ≥ 200000 nM | ≥ 200000 nM | ≥ 200000 nM | ≥ 200000 nM | ≥ 200000 nM | ≥ 200000 nM | ≥ 200000 nM
18 | Cc1cc(N2CC(C(=O)NN3CC(C(=O)O)CC3=O)CC2=O)cc(C)c1S(N)(=O)=O (stereo not given) | 13000 nM | 7100 nM | ≥ 200000 nM | 9100 nM | 7700 nM | 83000 nM | 4000 nM | 22000 nM | 6700 nM | 33000 nM

The next lines start with the values.

Row | Kd (Carbonic anhydrase 1) | Kd (Carbonic anhydrase 2) | Kd (Carbonic anhydrase 3) | Kd (Carbonic anhydrase 4) | Kd [1] | Kd (Carbonic anhydrase 6) | Kd (Carbonic anhydrase 9) | Kd (Carbonic anhydrase 12) | Kd (Carbonic anhydrase 13) | Kd (Carbonic anhydrase 7) | SMILES
19 | 1500 nM | 2000 nM | ≥ 200000 nM | 6700 nM | ≥ 200000 nM | 50000 nM | 3000 nM | – | 2000 nM | 3400 nM | COC(=O)C1CC(=O)N(c2cc(C)c(S(N)(=O)=O)c(C)c2)C1 (stereo not given)
20 | 710 nM | 56 nM | ≥ 200000 nM | 180 nM | 3.2 nM | 590 nM | 77 nM | – | 50 nM | 16 nM | COc1ccc(/C=N/NC(=O)C2CC(=O)N(c3cc(C)c(S(N)(=O)=O)c(C)c3Cl)C2)cc1 (stereo not given)
21 | 2500 nM | 2900 nM | ≥ 200000 nM | 20000 nM | 630 nM | 18000 nM | 2500 nM | 33000 nM | 33000 nM | 37000 nM | Cc1cc(N2CC(C(=O)N/N=C/c3ccc(Br)cc3)CC2=O)cc(C)c1S(N)(=O)=O (stereo not given)
22 | 1600 nM | – | ≥ 200000 nM | 6800 nM | – | 45000 nM | – | ≥ 200000 nM | 3900 nM | 8300 nM | Cc1cc(NC(=O)C2CC(=O)N(c3ccccc3)C2)cc(C)c1S(N)(=O)=O (stereo not given)
23 | 2900 nM | 2000 nM | ≥ 200000 nM | 2000 nM | 500 nM | 29000 nM | 2000 nM | 67000 nM | 8300 nM | 33000 nM | Cc1cc(C)n(NC(=O)C2CC(=O)N(c3cc(C)c(S(N)(=O)=O)c(C)c3)C2)n1 (stereo not given)
24 | ≥ 200000 nM | ≥ 200000 nM | ≥ 200000 nM | ≥ 200000 nM | ≥ 200000 nM | ≥ 200000 nM | ≥ 200000 nM | ≥ 200000 nM | ≥ 200000 nM | ≥ 200000 nM | Cc1c(Br)c(N2CC(C(=O)N/N=C/c3ccccc3)CC2=O)c(Br)c(C)c1S(N)(=O)=O (stereo not given)
25 | 560 nM | 50 nM | ≥ 200000 nM | 340 nM | 7.7 nM | 920 nM | 200 nM | 1400 nM | 67 nM | 63 nM | Cc1cc(N2CC(C(=O)N/N=C/c3ccc(Br)cc3)CC2=O)c(Cl)c(C)c1S(N)(=O)=O (stereo not given)
26 | 6200 nM | 2100 nM | ≥ 200000 nM | 17000 nM | 28 nM | 9900 nM | 1100 nM | 14000 nM | 320 nM | 1300 nM | Cc1cc(S(N)(=O)=O)c(C)cc1N1CC(C(=O)N/N=C/c2ccc([N+](=O)[O-])cc2)CC1=O (stereo not given)
27 | ≥ 200000 nM | ≥ 200000 nM | – | – | – | – | – | ≥ 200000 nM | ≥ 200000 nM | – | Cc1c(Br)c(N2CC(C(=O)N/N=C/c3ccc([N+](=O)[O-])cc3)CC2=O)c(Br)c(C)c1S(N)(=O)=O (stereo not given)
28 | 2000 nM | 2000 nM | ≥ 200000 nM | 2200 nM | 670 nM | 14000 nM | 2000 nM | 18000 nM | 21000 nM | 18000 nM | COc1ccc(/C=N/NC(=O)C2CC(=O)N(c3cc(C)c(S(N)(=O)=O)c(C)c3)C2)cc1 (stereo not given)
29 | 2500 nM | 2000 nM | ≥ 200000 nM | 7000 nM | 770 nM | 41000 nM | 1400 nM | 10000 nM | 2000 nM | 5400 nM | Cc1cc(N2CC(c3n[nH]c(=S)n3-c3ccccc3)CC2=O)cc(C)c1S(N)(=O)=O (stereo not given)
30 | 910 nM | 1100 nM | ≥ 200000 nM | 6900 nM | 770 nM | ≥ 200000 nM | 1400 nM | 5000 nM | 1000 nM | 6500 nM | Cc1cc(N2CC(C(=O)NNC(=S)Nc3ccccc3)CC2=O)cc(C)c1S(N)(=O)=O (stereo not given)

Reference: ChEMBL document CHEMBL4308907, “Pyrrolidinone-bearing methylated and halogenated benzenesulfonamides as inhibitors of carbonic anhydrases” (Bioorg Med Chem, 2019)
